Data reported in the NIST ThermoML archive (doi:10.1016/j.tca.2011.07.005).
Where “and” joins values, the source holds several entries; their conditions need not be identical. Equal values may be shown once.

Tests used:
[1] = xn = mol fraction of the nth substance listed; settings: 101 kPa, Liquid; for speed of sound: Linear variable-path acoustic interferometer; for mass density: Pycnometric method
[2] = 101 kPa, Liquid; for speed of sound: Linear variable-path acoustic interferometer; for mass density: Pycnometric method

Nc1cccc(Cl)c1 [3-chlorobenzenamine] + CC(C)OC(C)C
[1]
Settings | mass density, 303.15 K [kg/m3] | mass density, 313.15 K [kg/m3] | mass density, 323.15 K [kg/m3] | speed of sound, 303.15 K [m/s] | speed of sound, 313.15 K [m/s] | speed of sound, 323.15 K [m/s]
x2 = 0 | 1205.3 | 1196.1 | 1186.6 | 1517 | 1484 | 1452
x2 = 0.0619 | 1171.2 | 1163.2 | 1154.7 | 1484 | 1451 | 1418
x2 = 0.1302 | 1134.1 | 1126.7 | 1118.2 | 1448 | 1414 | 1380
x2 = 0.2031 | 1095.7 | 1088.2 | 1079.3 | 1410 | 1374 | 1340
x2 = 0.2827 | 1055.1 | 1047.4 | 1038 | 1368 | 1331 | 1295
x2 = 0.3716 | 1011.3 | 1003.4 | 993.6 | 1321 | 1283 | 1246
x2 = 0.4676 | 965 | 957.2 | 947.6 | 1270 | 1230 | 1192
x2 = 0.5803 | 911.2 | 903.7 | 894.5 | 1209 | 1168 | 1129
x2 = 0.7235 | 842.6 | 835.3 | 826.7 | 1132 | 1089 | 1048
x2 = 0.8428 | 785.4 | 777.7 | 768.7 | 1066 | 1023 | 981

Nc1ccccc1Cl [2-chlorobenzeneamine]
[2]
Settings | mass density [kg/m3] | speed of sound [m/s]
303.15 K | 1202.7 | 1470
313.15 K | 1193 | 1438
323.15 K | 1183.3 | 1402

Nc1cccc(Cl)c1 [3-chlorobenzenamine]
[2]
Settings | mass density | speed of sound
303.15 K | 1205.3 kg/m3 | 1517 m/s
313.15 K | 1196.1 kg/m3 and 1196 kg/m3 | 1484 m/s and 1486 m/s
323.15 K | 1186.6 kg/m3 | 1452 m/s

Nc1cccc(Cl)c1 [3-chlorobenzenamine] + C1CCOC1
[1]
Settings | mass density, 303.15 K [kg/m3] | mass density, 313.15 K [kg/m3] | mass density, 323.15 K [kg/m3] | speed of sound, 303.15 K [m/s] | speed of sound, 313.15 K [m/s] | speed of sound, 323.15 K [m/s]
x2 = 0 | 1205.3 | 1196 | 1186.6 | 1517 | 1486 | 1452
x2 = 0.0728 | 1189.4 | 1180.6 | 1171.5 | 1500 | 1468 | 1436
x2 = 0.1321 | 1175.7 | 1167.1 | 1157.9 | 1487 | 1455 | 1424
x2 = 0.2389 | 1149.7 | 1140.6 | 1131.3 | 1465 | 1432 | 1400
x2 = 0.3272 | 1126.8 | 1117 | 1107.4 | 1446 | 1412 | 1380
x2 = 0.4116 | 1102.9 | 1093.2 | 1083.3 | 1427 | 1392 | 1360
x2 = 0.5161 | 1071.3 | 1061.4 | 1051.5 | 1403 | 1366 | 1333
x2 = 0.6297 | 1033.5 | 1023.9 | 1014.3 | 1373 | 1336 | 1301
x2 = 0.7419 | 992 | 982.7 | 973.7 | 1341 | 1302 | 1266
x2 = 0.8633 | 941.6 | 932.3 | 923.4 | 1302 | 1260 | 1222

C1CCOC1 [tetrahydrofuran] + Nc1ccccc1Cl
[1], x1 = 1
Settings | mass density [kg/m3] | speed of sound [m/s]
303.15 K | 876.9 | 1254
313.15 K | 865.7 | 1207
323.15 K | 854.8 | 1165
